Earlier results in patent publication US6403086B1, “Administering extracts of morinda citrifolia, red wine, prune, blueberry, pomegranate, apple and an enzyme mixture” (priority 2001, dated 2002).

Details: supplementation with 30 IU to 100 IU

vitamin E
lower risk of heart disease: 41%
